SMILES strings stand for the structures.

One assay addresses T1, RORγ-LBD (Homo sapiens, UniProt P51449).
T1 construct: adding an appropriate amount of biotinylated RORγ-LBD and APC-labeled streptavidin
T1 sequence (P51449 269-508 limits assumed): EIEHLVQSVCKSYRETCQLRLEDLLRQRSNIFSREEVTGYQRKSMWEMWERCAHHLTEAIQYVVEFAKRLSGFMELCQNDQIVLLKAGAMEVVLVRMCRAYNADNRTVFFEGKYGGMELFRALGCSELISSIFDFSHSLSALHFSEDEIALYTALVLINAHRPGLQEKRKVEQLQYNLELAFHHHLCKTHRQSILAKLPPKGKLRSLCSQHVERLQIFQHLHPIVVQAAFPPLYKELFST
Nature of the assay: Fluorescence Energy Transfer (FRET) Assay. It is filed as biochemical. Conditions: mean pIC50 of multiple test results if tested more than once; SRC1/RORγ-LBD with 0.2 μM surrogate agonist. The protocol: The assays were performed in an assay buffer consisting of 50 mM NaF, 50 mM 3-(N-morpholino)propanesulfonic acid, pH 7.5, 50 μM 3-[(3-cholamidopropyl)dimethylammonio]-propanesulfonate, 0.1 mg/mL bovine serum albumin, and 10 mM dithiothreitol in 384-well plates (Greiner 784076, Longwood, Fla.). The total volume was 10 μL/well. The europium-labeled SRC1 solution was prepared by adding an appropriate amount of biotinylated SRC and europium labeled streptavidin (PerkinElmer Life and Analytical Sciences, Waltham, Mass.) into assay buffer, with final concentrations of 27 and 3.3 nM, respectively. The allophycocyanin (APC)-labeled-LBD solution was prepared by adding an appropriate amount of biotinylated RORγ-LBD and APC-labeled streptavidin (CR130-100; PerkinElmer Life and Analytical Sciences) at a final concentration of 33 nM each. After 15 min of incubation at room temperature, a 20-fold excess of biotin was added to block the remaining free streptavidin. […] The plates were incubated for 1 h at room temperature and then read on ViewLux (PerkinElmer Life and Analytical Sciences) in LANCE mode configured for europeum-APC labels. Data were collected and analyzed by Activitybase.

Assay [1] deals with T2, RORγ ligand binding domain (RORγ-LBD) (Homo sapiens, UniProt P51449).
T2 construct: modified polyhistidine tag MKKHHHHHHLVPRGS (N); made in house; host or cells: E. coli BL21(DE3)
T2 sequence (P51449 263-518): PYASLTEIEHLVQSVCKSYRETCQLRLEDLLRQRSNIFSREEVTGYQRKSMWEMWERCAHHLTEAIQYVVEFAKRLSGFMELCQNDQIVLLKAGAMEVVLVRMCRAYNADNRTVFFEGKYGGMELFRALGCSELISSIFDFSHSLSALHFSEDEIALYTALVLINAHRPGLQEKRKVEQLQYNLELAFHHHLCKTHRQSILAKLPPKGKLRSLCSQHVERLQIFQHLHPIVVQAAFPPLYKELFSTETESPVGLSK
Nature of the assay: Dual Fluorescence Energy Transfer (FRET) Assay. To be noted: mean pIC50 of multiple test results if tested more than once; RORγ-LBD/SRC1(2) peptide interaction. It is filed as biochemical. The source says: This assay is based on the knowledge that nuclear receptors interact with cofactors (transcription factors) in a ligand dependent manner. RORγ is a typical nuclear receptor in that it has an AF2 domain in the ligand binding domain (LBD) which interacts with co-activators. The sites of interaction have been mapped to the LXXLL motifs in the co-activator SRC1(2) sequences. Short peptide sequences containing the LXXLL motif mimic the behavior of full-length co-activator.
The assay measures ligand-mediated interaction of the co-activator peptide with the purified bacterial-expressed RORγ ligand binding domain (RORγ-LBD) to indirectly assess ligand binding. RORγ has a basal level of interaction with the co-activator SRC1(2) in the absence of ligand, thus it is possible to find ligands that inhibit or enhance the RORγ/SRC1(2) interaction.
Human RORγ Ligand Binding Domain (RORγ-LBD) was expressed in E. coli strain BL21(DE3) as an amino-terminal polyhistidine tagged fusion protein. DNA encoding this recombinant protein was sub-cloned into a modified pET21a expression vector (Novagen). […]
Approximately 50 g E. coli cell pellet was resuspended in 300 mL of lysis buffer (30 mM imidazole pH 7.0 and 150 mM NaCl). […] After washing to baseline absorbance with the equilibration buffer, the column was developed with a gradient from 30 to 500 mM imidazole pH 7.0. […]

The target of a further assay is T3, RORγ (Homo sapiens, UniProt P51449).
T3 construct: expressed in transfected cells
T3 sequence (P51449 1-497 isoform P51449-2): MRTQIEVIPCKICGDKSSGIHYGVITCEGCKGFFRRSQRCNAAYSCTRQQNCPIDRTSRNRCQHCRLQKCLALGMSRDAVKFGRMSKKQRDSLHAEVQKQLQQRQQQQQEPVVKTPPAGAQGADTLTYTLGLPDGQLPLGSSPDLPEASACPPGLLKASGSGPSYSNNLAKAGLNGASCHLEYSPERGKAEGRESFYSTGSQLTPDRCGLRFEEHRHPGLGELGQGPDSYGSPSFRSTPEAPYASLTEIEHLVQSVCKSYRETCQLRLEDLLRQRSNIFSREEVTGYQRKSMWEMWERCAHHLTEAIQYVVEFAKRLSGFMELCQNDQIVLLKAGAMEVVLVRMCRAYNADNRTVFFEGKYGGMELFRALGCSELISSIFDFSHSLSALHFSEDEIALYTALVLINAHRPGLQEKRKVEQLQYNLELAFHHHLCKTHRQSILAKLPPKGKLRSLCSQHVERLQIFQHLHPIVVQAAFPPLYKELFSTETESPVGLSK
Nature of the assay: Jurkat Cell Luciferase Assay. It is filed as cell-based. Conditions: mean pIC50 of multiple test results if tested more than once; Jurkat cells, human IL17 promoter luciferase reporter, RORγt overexpression. The source says:
RORγ is known to bind to a CNS (conserved non-coding sequences) enhancer element in the IL17 promoter. In this assay, RORγ activity is indirectly assessed using a luciferase reporter construct which contains the human IL17 promoter having the RORγ-specific CNS enhancer element. Inhibition of RORγ activity by a compound will result in a decrease in luciferase activity of Jurkat cells transfected with the reporter construct.
For the luciferase reporter plasmid, the 3 Kb human IL17 promoter containing the RORγ-specific CNS enhancer element was PCR amplified from human genomic DNA and cloned into a pGL4-Luc2/hygro reporter plasmid sequentially as XhoI-HindIII (1.1 Kb) and KpnI-XhoI (1.9 Kb) fragments. For the 1.1 Kb fragment, PCR was used to amplify human IL17 proximal promoter region from genomic DNA of 293T cells using primers as follows: forward primer, 5′-[…]-3′ (XhoI site is underlined) and reverse primer, 5′-[…]-3′ (HindIII site is underlined). The 1.1 kb DNA bands were excised, purified, and inserted into pMD19-T Simple Vector (Takara). […]
Compounds were dissolved in DMSO at three concentrations, 10 mM, 400 uM and 16 uM, and were dispensed into 384-wells assay plate at 40 nl, 12.5 nl, 5 nl respectively. The volume was adjusted with pure DMSO to a give a final uniform volume of 40 nl Jurkat cells described above were counted and centrifuged. […]

The test system of the next assay is Mouse CD4+ cells. Nature of the assay: Th17 Cell Differentiation Assay. It is filed as cell-based. Conditions: mean pIC50 of multiple test results if tested more than once, IL-17 ELISA. The protocol: Mouse CD4+ cells were purified using the CD4+ T Cell Isolation II Kit according to manufacturer's instructions (Miltenyi Biotec). 96 well plates were pre-coated with anti-mCD3 antibody. Un-coated wells were used as controls. CD4+ Cells were resuspended in RPMI 1640 complete medium and were added to the 96-well plates. Cytokine cocktail and the compound were then added to the wells. Antibodies and cytokines (all from R&D Systems) used in the assay were selected from the following: anti-mCD3; anti-mCD28; anti-mIFNγ; anti-mIL4; mIL-6; mIL-23; mIL-1β; hTGF-β1. The culture was incubated at 37° C. for 3 days and supernatants were collected for ELISA. The IL-17 ELISAs were performed according to manufacturer's instructions (R&D Systems). The results were analyzed using Prism software with non-linear regression to determine pIC50.
The Th17 differentiation culture described above was maintained for 5 days and cells were analyzed by IL-17 and IFN-γ intracellular staining according to manufacturer's instructions (BD Biosciences).
On the technique in general: ELISA stands for enzyme-linked immunosorbent assay.

For `Cc1ncc(C(=O)Nc2cc(Cl)cc(CN3CCN(C(=O)[C@@H]4CCOC4)[C@@H](C)C3)c2C)cc1C#N` (single isomer, unassigned) [Example 91], the IC50 (usually the point on the concentration scale where inhibition reaches its midpoint) is approximately 0.251 µM on RORγ-LBD, approximately 0.794 µM in assay [1], approximately 0.0126 µM against RORγ and approximately 0.0174 µM in the assay with Mouse CD4+ cells.

For `Cc1ncc(C(=O)Nc2cc(Cl)cc(CN3CCN(C(=O)[C@H]4CCOC4)[C@@H](C)C3)c2C)cc1F` [Example 57, N-(5-chloro-2-methyl-3-(((S)-3-methyl-4-((S)-tetrahydrofuran-3-carbonyl)piperazin-1-yl)methyl)phenyl)-5-fluoro-6-methylnicotinamide], the IC50 is approximately 0.126 µM at RORγ-LBD, approximately 0.2 µM in assay [1], approximately 0.0251 µM on RORγ and approximately 0.0813 µM with Mouse CD4+ cells.

Values taken from US9868724B2, “Compounds” (GLAXOSMITHKLINE INTELLECTUAL PROPERTY DEVELOPMENT LIMITED, priority 2014, dated 2018).
